Test results as given in patent US20230150981A1, “N-HETEROARYLALKYL-2-(HETEROCYCLYL AND HETEROCYCLYLMETHYL) ACETAMIDE DERIVATIVES AS SSTR4 AGONISTS” (Takeda Pharmaceutical Compnay Limited, priority 2020, published 2023).

The molecules below were run against T1, SSTR4 (Homo sapiens, UniProt P31391) (assay: Inhibition of forskolin stimulated cAMP in CHO-K1 cells overexpressing SSTR4). Details: read-out: SSTR4 Activity pEC50 (converted).
T1 construct: host or cells: CHO-K1
Type: cell-based
Procedure: Inhibition of Forskolin Stimulated cAMP in Cells Overexpressing SSTR4
This cell-based assay measures the ability of compounds to inhibit forskolin stimulated cAMP in CHO-K1 cells overexpressing SSTR4. CHO-K1 cells overexpressing SSTR4 (CHO-SSTR4) are purchased from DiscoveRx (product code 95-0059C2). The CHO-SSTR4 cells are maintained in F12K media with 10% Fetal Bovine Serum (Hyclone), 1% Pen/Strep (Life Technologies), and 800 μg/mL G418 (Life Technologies). To perform the assay, 3000 cells are plated per well in white 384-well plate (Corning 3570) in 50 μL complete media and the cells are allowed to attach for 16 hours in a 37° C., 5% CO2 incubator. The next day, the culture media is removed from the cells and the cells are washed (added then removed) with Krebs Ringer Buffer (ZenBio, KRB-1000 mL). Test compounds are suspended in DMSO and diluted in stimulation buffer: Krebs Ringer Buffer plus 0.5% BSA (Roche), 300 μM IBMX (Sigma), and 350 nM forskolin (Sigma). The cells are incubated in 10 μL compound/stimulation buffer for 30 minutes at room temperature. Cellular cAMP levels are detected with a HTRF LANCE Ultra cAMP kit (Perkin Elmer, catalog number TRF0264).
The assay is performed in accordance with the manufacturer's instructions. Five μL of diluted Eu-W8044 labeled streptavidin (dilution: 1:50 in cAMP Detection Buffer) is added to each well. Then 5 μL of diluted biotin cAMP (dilution: 1:150 in cAMP Detection Buffer) is added to each well. The plates are covered and allowed to incubate for 60 minutes at room temperature on a shaker. HTRF (665 nm/615 nm) is read on a Perkin Elmer ENVISION plate reader. The pEC50 values are generated using Activity Base for Screening Data Management.

T1 sequence (P31391 whole entry): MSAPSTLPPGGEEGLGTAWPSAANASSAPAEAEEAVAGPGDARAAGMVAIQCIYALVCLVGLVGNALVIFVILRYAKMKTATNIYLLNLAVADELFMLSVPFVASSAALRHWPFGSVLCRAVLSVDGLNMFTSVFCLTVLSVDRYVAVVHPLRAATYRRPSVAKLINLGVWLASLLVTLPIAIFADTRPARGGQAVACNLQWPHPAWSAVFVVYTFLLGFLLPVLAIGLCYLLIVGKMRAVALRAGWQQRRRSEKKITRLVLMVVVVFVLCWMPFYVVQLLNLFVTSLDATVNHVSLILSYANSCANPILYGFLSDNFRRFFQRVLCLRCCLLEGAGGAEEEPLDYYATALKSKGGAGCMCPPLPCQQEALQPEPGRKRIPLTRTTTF

EC50 [nM]	SMILES
100	CN1CCC[C@@H]1CC(=O)NC(C)(C)COc1ncccc1C(F)F [Example 84, (R)-N-(1-((3-(difluoromethyl)pyridin-2-yl)oxy)-2-methylpropan-2-yl)-2-(1-methylpyrrolidin-2-yl)acetamide]
15.8	CC(C)(COc1ncccc1C(F)(F)F)NC(=O)C[C@H]1CCCN1C1CC1 [Example 59, (R)-2-(1-cyclopropylpyrrolidin-2-yl)-N-(2-methyl-1-((3-(trifluoromethyl)pyridin-2-yl)oxy)propan-2-yl)acetamide]
25.1	Cc1cccnc1OCC(C)(C)NC(=O)CC1CCC(C)N1C (stereo not shown) [Example 68, 2-(1,5-dimethylpyrrolidin-2-yl)-N-(2-methyl-1-((3-methylpyridin-2-yl)oxy)propan-2-yl)acetamide]
398	Cc1ccc(C(NC(=O)C[C@@H]2CCCN2C)C(F)(F)F)cc1 (stereo partly drawn) [Example 158, 2-((S)-1-methylpyrrolidin-2-yl)-N-(2,2,2-trifluoro-1-(p-tolyl)ethyl)acetamide]
1260	C[C@H](CN1CCC1)C(=O)NC(C)(C)c1ccc(Cl)cc1 (single isomer, unassigned) [Example 154]
1.58	Cc1cccnc1OCC(C)(C)NC(=O)[C@@H](C)[C@@H]1CCCN1C (racemic) [Example 67, (S)-N-(2-methyl-1-((3-methylpyridin-2-yl)oxy)propan-2-yl)-2-((S)-1-methylpyrrolidin-2-yl)propanamide and (R)-N-(2-methyl-1-((3-methylpyridin-2-yl)oxy)propan-2-yl)-2-((R)-1-methylpyrrolidin-2-yl)propanamide]
1260	COc1ccc(C(C)(C)NC(=O)[C@@H](C)CN2CCC2)cc1 (single isomer, unassigned) [Example 139]
501	C[C@H](NC(=O)C[C@@H]1CCCN1C)c1ccc(F)cc1 [Example 32, N-((S)-1-(4-fluorophenyl)ethyl)-2-((S)-1-methylpyrrolidin-2-yl)acetamide]
158	COc1c(C)cccc1C(C)(C)NC(=O)C[C@H]1CCCN1C [Example 117, (R)-N-(2-(2-methoxy-3-methylphenyl)propan-2-yl)-2-(1-methylpyrrolidin-2-yl)acetamide]
3980	CN1CCC(F)(F)C1CC(=O)NC(C)(C)c1nccc2occc12 (stereo not shown) [Example 99, 2-(3,3-difluoro-1-methylpyrrolidin-2-yl)-N-(2-(furo[3,2-c]pyridin-4-yl)propan-2-yl)acetamide]
2000	O=C(CCN1CCCC1)N[C@@H](c1cccc(Cl)c1)C(F)F (single isomer, unassigned) [Example 197]
15.8	Cc1cccnc1OCC(C)(C)NC(=O)[C@H](C)[C@@H]1CCCN1C (racemic) [Example 66, (R)-N-(2-methyl-1-((3-methylpyridin-2-yl)oxy)propan-2-yl)-2-((S)-1-methylpyrrolidin-2-yl)propanamide and (S)-N-(2-methyl-1-((3-methylpyridin-2-yl)oxy)propan-2-yl)-2-((R)-1-methylpyrrolidin-2-yl)propanamide]
501	CC(C)(COc1ncccc1C(F)(F)F)NC(=O)C[C@@H]1CCCN1CCF [Example 52, (S)-2-(1-(2-fluoroethyl)pyrrolidin-2-yl)-N-(2-methyl-1-((3-(trifluoromethyl)pyridin-2-yl)oxy)propan-2-yl)acetamide]
398	Cc1ccccc1C(C)(C)NC(=O)[C@@H](C)CN1CCC1 (single isomer, unassigned) [Example 141]
251	COc1c(F)cccc1C(C)(C)NC(=O)[C@@H](C)CN1CCC1 (single isomer, unassigned) [Example 172]
2000	CN1Cc2ccccc2C[C@H]1CC(=O)NC(C)(C)c1nccc2ccccc12 [Example 20, (S)-N-(2-(isoquinolin-1-yl)propan-2-yl)-2-(2-methyl-1,2,3,4-tetrahydroisoquinolin-3-yl)acetamide]
794	COc1cc(F)ccc1[C@H](C)NC(=O)C[C@@H]1CCCN1C [Example 95, N-((S)-1-(4-fluoro-2-methoxyphenyl)ethyl)-2-((S)-1-methylpyrrolidin-2-yl)acetamide]
20	CN1CCC[C@@H]1CC(=O)NC(C)(C)COc1ncccc1OC(F)(F)F [Example 106, (R)-N-(2-methyl-1-((3-(trifluoromethoxy)pyridin-2-yl)oxy)propan-2-yl)-2-(1-methylpyrrolidin-2-yl)acetamide]
316	CN1CCC[C@H]1CC(=O)NC(C)(C)COc1nccc2ccoc12 [Example 122, (S)-N-(1-(furo[2,3-c]pyridin-7-yloxy)-2-methylpropan-2-yl)-2-(1-methylpyrrolidin-2-yl)acetamide]
79.4	CN1CCCC1CC(=O)NC(C)(C)c1nccc2occc12 (stereo not shown) [Example 25, N-(2-(furo[3,2-c]pyridin-4-yl)propan-2-yl)-2-(1-methylpyrrolidin-2-yl)acetamide]

EC50 [nM]	SMILES
126	CCN1CCC[C@H]1CC(=O)NC(C)(C)COc1ncccc1C(F)(F)F [Example 51, (S)-2-(1-ethylpyrrolidin-2-yl)-N-(2-methyl-1-((3-(trifluoromethyl)pyridin-2-yl)oxy)propan-2-yl)acetamide]
158	CN1CCC[C@H]1CC(=O)NC(C)(C)COc1ccccn1 [Example 123, (S)-N-(2-methyl-1-(pyridin-2-yloxy)propan-2-yl)-2-(1-methylpyrrolidin-2-yl)acetamide]
> 10000	Cc1cccnc1OCC1(NC(=O)[C@H](C)[C@H]2CCCN2C)CC1 (single isomer, unassigned) [Example 177]
200	Cn1nc(C(C)(C)NC(=O)CC23CCCN2CCC3)c2ccccc21 [Example 10, N-(2-(1-methyl-1H-indazol-3-yl)propan-2-yl)-2-(tetrahydro-1H-pyrrolizin-7a(5H)-yl)acetamide]
200	C[C@@H](CN1CCC1)C(=O)N[C@@H](CF)c1ccccc1 (single isomer, unassigned) [Example 206]
63.1	CN1CCC[C@H]1CC(=O)NC(C)(C)c1cccc(F)c1Cl [Example 93, (S)-N-(2-(2-chloro-3-fluorophenyl)propan-2-yl)-2-(1-methylpyrrolidin-2-yl)acetamide]
200	CC[C@H](CN1CCC1)C(=O)NC(C)(C)c1ccc(C)cc1 (single isomer, unassigned) [Example 186]
316	Cc1cccc(C(C)(C)NC(=O)C[C@H]2CCCN2C)c1F [Example 87, (R)-N-(2-(2-fluoro-3-methylphenyl)propan-2-yl)-2-(1-methylpyrrolidin-2-yl)acetamide]
126	Cc1cccnc1OCC1(NC(=O)[C@@H](C)[C@@H]2CCCN2C)CC1 (single isomer, unassigned) [Example 176]
200	COc1c(F)cccc1C(C)(C)NC(=O)C[C@H]1CCCN1C [Example 115, (R)-N-(2-(3-fluoro-2-methoxyphenyl)propan-2-yl)-2-(1-methylpyrrolidin-2-yl)acetamide]
20	CN1CCC[C@H]1CC(=O)NC(C)(C)COc1ncccc1OC(F)(F)F [Example 72, (S)-N-(2-methyl-1-((3-(trifluoromethoxy)pyridin-2-yl)oxy)propan-2-yl)-2-(1-methylpyrrolidin-2-yl)acetamide]
126	Cc1c(F)cccc1C(C)(C)NC(=O)C[C@@H]1CCCN1C [Example 89, (S)-N-(2-(3-fluoro-2-methylphenyl)propan-2-yl)-2-(1-methylpyrrolidin-2-yl)acetamide]
316	CN1CCC[C@H]1CC(=O)NC(C)(C)c1cccc(F)c1F [Example 82, (S)-N-(2-(2,3-difluorophenyl)propan-2-yl)-2-(1-methylpyrrolidin-2-yl)acetamide]
631	COc1ccccc1C(C)(C)NC(=O)[C@@H](C)CN1CCCC1 (single isomer, unassigned) [Example 76]
79.4	CN1CCC[C@H]1CC(=O)NC(C)(C)c1cc(Cl)ccc1Cl [Example 33, (S)-N-(2-(2,5-dichlorophenyl)propan-2-yl)-2-(1-methylpyrrolidin-2-yl)acetamide]
501	Cc1ccc(C(C)(C)NC(=O)[C@H](C)CN2CCC2)cc1 (single isomer, unassigned) [Example 148]
398	Cc1cccnc1OCC1(NC(=O)[C@@H](C)[C@H]2CCCN2C)CC1 (single isomer, unassigned) [Example 126]
> 10000	Cc1ccc([C@@H](CF)NC(=O)CCN2CCC2)cc1 (single isomer, unassigned) [Example 174]
1000	C[C@H](NC(=O)C[C@H]1CCCN1C)c1ccc(F)cc1 [Example 37, N-((S)-1-(4-fluorophenyl)ethyl)-2-((R)-1-methylpyrrolidin-2-yl)acetamide]
398	COc1ncccc1CC1(NC(=O)CC2CCCCN2C)CC1 (stereo not shown) [Example 79, N-(1-((2-methoxypyridin-3-yl)methyl)cyclopropyl)-2-(1-methylpiperidin-2-yl)acetamide]
